Measured values: patent US20220362167A1, “WATER-DISPERSIBLE CANNABIDIOL PRODUCT AND PREPARATION METHOD THEREFOR” (GUILIN LAYN NATURAL INGREDIENTS CORP., priority 2019, published 2022)

Experiment: Water solubility test of cannabidiol product
Format: physicochemical
Details: 50 mg in 500 mL distilled water, room temperature, stirred
Experimental: Water Solubility Test of Cannabidiol Product
Three parts of 500 mL of distilled water are taken. 50 mg of the cannabidiol product prepared in Example 1, Comparative Example 1 and Comparative Example 2 are added respectively at room temperature, and stirred, and recorded the time required for dissolution, with the cannabidiol as control.

C=C(C)[C@@H]1CCC(C)=C[C@H]1c1c(O)cc(CCCCC)cc1O [cannabidiol]
appearance of the solution: precipitation and delamination
